Experimental data as given in PubChem BioAssay (NCI).
Several values for one entry are separate records, joined by “and”; a condition that tells them apart may be missing. Equal entries are not always repeated.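 Grown in 96-well plates, cells were treated for 48 hours with each compound at five concentrations. Insufficient inhibition: endpoint recorded as highest concentration tested. The concentration for 50% growth inhibition is given as GI50. At the TGI there is no net growth.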

How the values were obtained:
Experiment in all cases: DTP human tumour cell line panel, 48 h
[1] = system: SN12C renal
[2] = system: MALME-3M melanoma
[3] = system: EKVX NSCLC
[4] = system: RPMI-8226 leukemia
[5] = system: SF-295 CNS
[6] = system: LOX IMVI melanoma
[7] = system: MCF7 breast
[8] = system: SF-268 CNS
[9] = system: IGROV1 ovarian
[10] = system: SNB-19 CNS

Compound	TGI [1]	TGI [2]	TGI [3]	TGI [4]	TGI [5]	TGI [6] [µM]	TGI [7]	TGI [8]	TGI [9]	TGI [10]	GI50 [1] [µM]	GI50 [2]	GI50 [3] [µM]	GI50 [4] [µM]	GI50 [5]	GI50 [6] [µM]	GI50 [7] [µM]	GI50 [8]	GI50 [9] [µM]	GI50 [10]
CCO/C=C1\SC(=S)N(c2ccc(OCC)cc2)C1=O	> 100 µM	> 100 µM	> 100 µM	> 100 µM	> 100 µM	> 100	> 100 µM	> 100 µM	> 100 µM	> 100 µM	–	–	–	–	–	–	–	–	–	–
COc1ccc(Nc2cnc3cc(N)cc(N)c3n2)cc1	37 µM	39.4 µM	42.6 µM	25.7 µM	48.7 µM	40.5	40.9 µM	39.8 µM	37.7 µM	> 100 µM	15.6	15.2 µM	22	4.53	22.3 µM	18.8	18.4	17.7 µM	17.6	32.8 µM
O=C1c2ccccc2C(=O)c2c(NC3CCCCC3)ccc(Nc3ccc(S(=O)(=O)O)cc3)c21	60.5 µM	58.7 µM	64.4 µM	> 100 µM	> 100 µM	> 100	86.8 µM	> 100 µM	> 100 µM	> 100 µM	–	–	–	–	–	–	–	–	–	–
Nc1nccc(-c2c(-c3ccc(F)cc3)nn3cc(C(F)(F)F)ccc23)n1	> 25 µM	> 25 µM	> 25 µM	> 25 µM	> 25 µM	> 25	> 25 µM	> 25 µM	> 25 µM	> 25 µM	> 25	> 25 µM	> 25	> 25	> 25 µM	> 25	> 25	> 25 µM	> 25	> 25 µM
COc1cc(C(=O)/C=C/c2cccc(Nc3ccnc4cc(Cl)ccc34)c2)cc(OC)c1OC	–	3.38 µM	–	1.42 µM	3.03 µM	1.46	2.06 µM	–	3.8 µM	2.45 µM	–	1.46 µM	–	0.312	1.42 µM	0.373	0.609	–	1.32	1.18 µM
CCCCCCCCCCCCCCNC(=O)Nc1ccc(Cl)c(Cl)c1	> 100 µM	4.59 µM	6.15 µM	3.26 µM	> 24.8 µM	> 100	> 36.1 µM	> 100 µM	–	> 100 µM	2.85	1.39 µM	1.97	1.24	2.6 µM	3.23	2.86	3.72 µM	1.33	4.16 µM
CCCCCCCCCCCC[C@@H](O)[C@H]1CC[C@H]([C@H](O)CC[C@H](O)[C@@H]2CC[C@@H](CCCCCCCC3=C[C@H](C)OC3=O)O2)O1	> 50 µM	> 50 µM	> 50 µM	> 50 µM	> 50 µM	–	> 50 µM	> 50 µM	> 50 µM	> 50 µM	> 50	–	1.69	2.45	2.4 µM	1.13	1.85	4.21 µM	8.89	9.69 µM
C=C(CN1CCc2[nH]c3ccc(F)cc3c2C1)c1ccc(C(=O)Nc2ccccc2N)cc1	14 µM	3.1 µM	19.7 µM	> 100 µM	11.8 µM	–	69.2 µM	8.36 µM	3.53 µM	21.7 µM	3.82	0.389 µM	5.06	2.48	3.31 µM	–	2.45	3.03 µM	0.41	3.73 µM
CCC(c1ccccc1)c1noc(CCN(CC)CC)n1 (stereo unspecified)	> 94.8 µM	> 100 µM	> 91.3 µM	> 100 µM	> 100 µM	> 60.3	76.2 µM	> 100 µM	> 92.1 µM	> 100 µM	27.1	30.2 µM	> 47	13.2	> 56.9 µM	34.1	8.98	35.1 µM	> 48.5	> 78.4 µM
COc1ccc(-c2[nH]c3ccc(OC)cc3c2C=C(C#N)C#N)cc1	> 100 µM	> 100 µM	–	> 100 µM	> 100 µM	> 100	> 100 µM	> 100 µM	> 100 µM	> 100 µM	15.9	> 100 µM	–	2.5	0.306 µM	> 100	0.382	1.67 µM	> 24	> 37 µM
CC(=O)O[C@H]1CC2C(C3CC[C@H](C(C)CCC(=O)O)[C@]31C)[C@H](OC(C)=O)C[C@@H]1CC3(CC[C@]21C)OOC1(CCC(C)CC1)OO3 (stereo partly specified)	18.3 µM and 9.27 µM	28.3 µM and 8.04 µM	4.9 µM and 2.9 µM	6.9 µM and 4.79 µM	19.8 µM and 5.53 µM	–	30.4 µM and 38.1 µM	22.7 µM and 5.2 µM	4.64 µM and 2.76 µM	20.1 µM and 14.7 µM	–	12.5 µM and 2.73 µM	–	–	7.46 µM and 2.25 µM	–	–	6.18 µM and 2.11 µM	–	7.57 µM and 3.57 µM
NC(N)=NCCCC(NCc1c2ccccc2nc2ccccc12)C(=O)O (stereo unspecified)	> 100 µM	> 100 µM	> 100 µM	> 53.3 µM	> 100 µM	97.9	> 100 µM	> 100 µM	> 100 µM	> 100 µM	–	–	–	–	–	–	–	–	–	–
COc1ccc(/C=C2\CCC/C(=C\c3ccc(OC)c(OC)c3)C2=O)cc1OC	> 32.5 µM	> 32.5 µM	> 32.5 µM	> 32.5 µM	21.3 µM	9.02	> 32.5 µM	> 32.5 µM	> 32.5 µM	> 32.5 µM	8.79	8.51 µM	14	1.15	1.4 µM	1.15	1.19	4.28 µM	1.72	20.8 µM
S=C1SCN(Cc2ccccc2)CN1Cc1ccco1	15.3 µM	23.5 µM	–	–	> 100 µM	10.2	16.1 µM	17.1 µM	26.4 µM	> 100 µM	4.06	8.44 µM	–	–	> 100 µM	1.88	1.78	3.59 µM	8.47	35.5 µM
